Experiment [1] has as its target T1, bovine serum albumin (BSA) (Bos taurus, UniProt P02769).
T1 construct: gene ALB
The experiment in a line: intrinsic tryptophan fluorescence quenching titration (apparent kD); supported by CD spectra and CD melting (ΔTm −[…] °C). The class given is binding.

The target of experiment [2] is T1, bovine serum albumin (BSA). Description: intrinsic tryptophan fluorescence quenching titration (apparent kD); supported by CD spectra and CD melting (ΔTm +[…] °C). Format: binding.

T1 sequence (P02769 25-607): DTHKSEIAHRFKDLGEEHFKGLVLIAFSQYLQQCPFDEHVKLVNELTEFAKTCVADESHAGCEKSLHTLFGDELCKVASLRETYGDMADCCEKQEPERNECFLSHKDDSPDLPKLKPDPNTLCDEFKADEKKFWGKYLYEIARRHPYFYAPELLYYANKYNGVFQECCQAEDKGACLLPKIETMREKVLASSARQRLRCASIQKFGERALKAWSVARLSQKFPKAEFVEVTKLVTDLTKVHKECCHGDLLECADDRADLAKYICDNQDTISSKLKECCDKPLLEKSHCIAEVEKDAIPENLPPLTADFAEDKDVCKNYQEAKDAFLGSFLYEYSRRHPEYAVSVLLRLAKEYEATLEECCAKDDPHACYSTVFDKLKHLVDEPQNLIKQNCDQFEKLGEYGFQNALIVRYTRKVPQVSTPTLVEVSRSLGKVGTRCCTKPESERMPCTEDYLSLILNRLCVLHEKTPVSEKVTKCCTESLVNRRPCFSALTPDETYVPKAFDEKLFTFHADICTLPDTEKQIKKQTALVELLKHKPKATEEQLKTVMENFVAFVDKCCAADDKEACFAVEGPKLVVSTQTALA

For `CCCCOC(=O)c1c(N)oc2c(-c3ccc([N+](=O)[O-])cc3)c3c(C(=O)OCCCC)c(N)oc3cc12` [BDF1], in experiment [1], the Kd worked out at 142 ± 64.6 nM.

For the molecule `CCCCOC(=O)c1c(N)oc2ccc(O)c(-c3ccc([N+](=O)[O-])cc3)c12` [BF1], the Kd in experiment [2] amounted to 28.4 ± 10.1 nM.

The values are drawn from paper PMC8961527, “Protein Binding of Benzofuran Derivatives: A CD Spectroscopic and In Silico Comparative Study of the Effects of 4-Nitrophenyl Functionalized Benzofurans and Benzodifurans on BSA Protein Structure” (Biomolecules, 2022).
